Results from patent publication US7005297B2, “Use of neuroactive compounds” (Council of Scientific and Industrial Research, priority 2003, dated 2006).
Marks after values point to notes of the source that are not given here.

What was measured:
[1] = test system: Drosophila melanogaster; test: negative geotaxis assay, height climbed by individual flies; type: in vivo
Procedure: (§1) Unless otherwise mentioned, standard methods of fly manipulation were followed. Standard fly medium consisting of agar-agar, maize powder, brown sugar, dried yeast and nipagin was used. Flies were cultured at 22±1° C., 60% RH, and 12 hrs light (9 AM to 9 PM) and 12 hours dark cycle. D. melanogaster wild type Oregon-R strain was used in the experiment. To obtain males for control and drug treatment, flies from identical cultures grown in glass vials were first allowed to lay eggs in milk bottles containing medium. Flies were shifted to fresh bottles every 12 hr. First 4 sets of bottles were discarded. Flies that emerged in subsequent bottles were only used. Those that emerged in the beginning were first discarded and then flies were collected twice at 12 hr interval. Flies collected each time were kept separately in a single bottle. Two days after first collection, males and females from both the bottles were separated. Males were then pooled together and shifted to a new bottle. Flies were used for control or drug treatment two days later.
Following morning after pooling males for treatment, drugs (Sigma-Aldrich Co, St. Louis, U.S.A.) were first dissolved in distilled water at following concentration: 33.3 mg/ml of strychnine (STR), 40 mg/ml of pentylenetetrazol (PTZ), 20 mg/ml of tetraethylammonium chloride (TEA), 10 mg/ml of lithium […] (LICA) and 2 mg/ml of nicotine (NICO). Appropriate volume of freshly made drug solutions were then poured in molten fly media, and mixed thoroughly, to achieve a final concentration of 3.33 mg/ml of STR, 4 mg/ml of PTZ, 2 mg/ml of TEA, 1 mg/ml of LICA, and 0.2 mg/ml of NICO. For control, i.e., normal food (NF), distilled water of same volume as drug solution was added in the medium and mixed. Following this, the molten media was dispensed in glass vials, stored overnight at 4° C. and then used for above treatment of flies. Thirty male flies were shifted to each of the […] treatment vials, NF, STR, PTZ, TEA, LICA and NICO. Flies were maintained at 22±1° C., 60% RH, and 12 hrs light (9 AM to 9 PM) and 12 hours dark cycle.
On 22nd day of the beginning of drug treatment, three males from each treatment were separately mated to a single virgin female each. The females were grown on NF and were never exposed to any drug at any time. The F1 progenies resulting from each pair mating were pooled together before being further used. F2 generation was obtained through mating in mass the F1 progenies. F1 to F2 flies were never exposed to any drug at any time.
Negative geotaxis assays for measuring height climbed and climbing speed, and horizontal locomotion assay for measuring distance walked—were performed at room temperature, between 9 AM to 9 PM. They were all performed at a specified area in a room, where same light sources were always used. While measuring various locomotor activities, extreme care was taken to ensure that the room is quiet, and the table onto which assays were performed undisturbed and vibration free. Utmost care was taken to ensure identical handling of flies, in minutest details. For measuring height climbed, climbing speed and distance walked, a single fly was randomly selected at a time. This was achieved by first inverting flies from a given treatment vial into an empty vial and then continuously and gently shaking and inverting both the vials in such a way that a single fly is finally trapped in the empty vial. Once trapped, all the three locomotor activities were measured using the same fly, height climbed, climbing speed and distance walked, in that order. One fly each from NF, STR, PTZ, PILO, TEA, LICA, and ESD, selected randomly, was first scored and then the same exercise was repeated for another two flies. Once a fly was scored for all the three locomotor activities, it was discarded. Flies were particularly checked for intact legs and wings, before they were used in negative geotaxis and horizontal locomotion assays.

[2] = test system: Drosophila melanogaster; conditions: F1 male and female progeny of drug-fed fathers, routine examination over 30 days
Procedure: as §1
Following morning after pooling males for treatment, drugs (Sigma-Aldrich Co, St. Louis, U.S.A.) were first dissolved in distilled water at following concentration: 33.3 mg/ml of strychnine (STR), 40 mg/ml of pentylenetetrazol (PTZ), 20 mg/ml of tetraethylammonium chloride (TEA), 10 mg/ml of lithium chloride (LICA) and 2 mg/ml of nicotine (NICO). […]

[3] = F1 males never exposed to drug, fathers drug-fed, assayed on 31st day of emergence, n=30, NF control 25.1
[4] = F2 females (second batch) never exposed to drug, grandfathers drug-fed, 8th day of emergence, n=30, NF control 21.3
[5] = drug exposed parent males, day 13 of treatment
[6] = drug-fed parent males, day 13 of treatment, drug in fly medium (STR 3.33, PTZ 4, TEA 2, LICA 1, NICO 0.2 mg/ml), n=30, NF control 20.86, asterisks = t-test vs NF (*5%, **1%, ***0.1%)

Row | Structure (SMILES) | Height climbed by flies, Mean (F1) [1, 3] | Height climbed by flies, Mean (F2) [1, 4] | change in height climbed compared to normal food (NF) [1, 5] | Height climbed by flies, Mean (Parents) [1, 6] | Height climbed by flies, Mean (F1) ([1]; in vivo) | Height climbed by flies, Mean (F2) ([1]; in vivo) | Height climbed by flies, Mean (Parents) ([1]; in vivo) | change in height climbed compared to normal food (NF) ([1]; in vivo) | gross locomotor activity compared to control [2]
1 | O=C([O-])[O-].[Li+].[Li+] [LICA, lithium carbonate] | 17.7*** cm | 27.53** cm | increase in the height climbed | 32.96*** cm | – | – | – | – | –
2 | CN1CCCC1c1cccnc1 (centres unmarked) [NICO, nicotine] | – | – | – | – | 10.86*** cm | 29.36*** cm | 32.16*** cm | increase in the height climbed | climbed very slowly
3 | C1CCc2nnnn2CC1 [PTZ, pentylenetetrazol] | – | – | increase in the height climbed | – | – | – | – | – | –
4 | O=C1C[C@@H]2OCC=C3CN4CC[C@]56c7ccccc7N1[C@H]5[C@H]2[C@H]3C[C@H]46 [STR, strychnine] | 16.56*** cm | 29.83*** cm | – | 28** cm | – | – | – | – | –
5 | CC[N+](CC)(CC)CC.[Cl-] [TEA, tetraethylammonium chloride] | 12.43*** cm | 29.46*** cm | increase in the height climbed | 32.4*** cm | – | – | – | – | –
